The source of these data is article PMC12677699, “Utilizing Proteolytic‐Resistant Nano‐Short Peptide Based on Naphthyl Tail‐Anchored to Combat Bacterial Infections” (Advanced Science, 2025).

For series [1], the system named is S. aureus ATCC 29213. Kind of series: Flow cytometry, PI. It is filed as cell-based, Staphylococcus aureus. The note with it: 16 × 10^−6 M N4, 1 h, control 1.23%. How it is done: The bacterial samples were incubated with N4 for 1 h and then incubated with the PI dye (at a final concentration of 10 µg mL^−1) for a further 15 min. Finally, bacteria containing PI dye were detected by FACScan flow cytometer at 488 nm excitation wavelength, bacterial solutions (containing PI dye) without N4 treatment were used as controls.

The subject of series [2] is S. aureus ATCC 29213. The series can be described thus: Drug resistance assay, 30 serial passages. It is filed as cell-based, Staphylococcus aureus. The note with it: S. aureus ATCC 29213, 30 successive passages at sub-MIC concentrations; gentamicin by day 17. How it is done:
(§1) The potential resistance development of nano‐short peptides was evaluated through 30 serial passages of E. coli ATCC 25922 and S. aureus ATCC 29213 in sub‐MIC conditions,^[ [38] ^] using gentamicin as control.

Series [3] concerns E. coli ATCC 25922. The series can be described thus: Time-kill kinetics. It is filed as cell-based, Escherichia coli. The note with it: 1 × MIC, PBS pH 7.4; n = 3. Here is the method:
(§2) Samples were collected at pre‐determined time points post‐exposure, serially diluted, and plated on Mueller‐Hinton agar (MHA) for viable colony counting after 18–24 h incubation at 37 °C. Untreated bacterial suspensions served as controls.

The next series has as its system MRSA. The series can be described thus: MRSA-mediated skin infection model. More on the design: bacterial load in skin tissue, Day 5 / bacterial load in skin tissue, Day 9: dose or concentration left out as unconfirmed. It is filed as in vivo, mouse. The note with it: MRSA wound, n = 8. The text has this:
The mouse skin infection model was based on previous research with some modifications.^[ [62] ^] The mice utilized in the […] were consistent with those employed in the in vivo toxicity assessment. Forty‐eight mice were randomly divided into three groups after a 3‐day pre‐feeding period, including control, N4‐treated and MRSA‐infected groups. Initially, the dorsal regions of the mice were depilated (Day ‐1). On the following day (Day 0), circular incisions were made on the dorsal surfaces, and 10 µL of saline‐diluted MRSA suspension (OD600 = 0.2) was applied to the wounds of the mice in N4‐treated and MRSA‐infected groups, while an equivalent volume of saline was administered to the wounds in the control mice. […] The above treatments were repeated after […] (Day 3). Throughout the experimental period, representative images of the wounds were captured.
Mice were euthanized on Days 5 and 9 post‐infection, and skin tissue homogenates were quantified for bacterial load. Subsequently, the supernatants of skin tissue homogenates from mice on Day 9 were selected for the detection of inflammatory factors, and wound tissues were collected for histological, Masson and immunofluorescence analyses.

The test system of series [4] is S. aureus ATCC 29213. The series can be described thus: Live/dead staining, PI and SYTO 9. It is filed as cell-based, Staphylococcus aureus. The text has this:
Finally, a fluorescence microscope (EVOS FL Auto, Massachusetts, USA) was used to observe the fluorescence images of the bacteria under different background colors and representative pictures were taken.

Series [5] in a line: Critical aggregation concentration, 1,8-ANS fluorescence. It is filed as physicochemical. The note with it: 1,8-ANS 1 × 10^−6 M, peptide 2-256 × 10^−6 M in deionized water, 1 h, ex 360 nm, em 420–670 nm, linear fitting of fluorescence intensities. How it is done: The self‐assembly behavior of nano‐short peptides was characterized by determining the CAC using 1,8‐ANS as a hydrophobic fluorescent probe.^[ [32] ^] Serial peptide dilutions (2‐256 × 10^−6 M in 50 µL deionized water) were prepared in 96‐well plates. 1,8‐ANS powder was solubilized in dimethylformamide (DMF) and added to the 96‐well plates (final concentration of 1 × 10^−6 M), and deionized water solution containing 1,8‐ANS was used as a blank control. After incubation for 1 h, the fluorescence emission spectra were continuously monitored with a microplate reader (Tecan Infinite200 Pro, λ excitation = 360 nm, λ emission = 420–670 nm). CAC values were determined by linear fitting of representative fluorescence intensities.

The next series relates to E. coli. Kind of series: In vivo peritonitis-sepsis model. The arrangement: species or system mouse. The note with it: 14 h, n = 8. Here is the method: The mice used in the peritonitis‐sepsis model were consistent with those employed in the in vivo toxicity assessment. Twenty‐four mice were randomly divided into three groups after a 3‐day pre‐feeding period. The mice in the control group received intraperitoneal injections of 100 µL of saline, followed by an additional 100 µL of saline 1 h later. The mice in the other two groups were administered intraperitoneal injections of 100 µL of a saline‐diluted E. coli suspension (OD600 = 0.6), and subsequently received either 100 µL of saline (E. coli‐infected group) or 10 mg kg^−1 of N4(N4‐treated group) 1 h later. 14 h post‐infection, the mice were euthanized via ether inhalation anesthesia, and blood samples were collected from the orbital vein for the analysis of inflammatory factors (IL‐1β, IL‐6, TNF‐α, and IL‐10).^[ [71] ^] In addition, peritoneal fluid was aseptically collected via peritoneal lavage with sterile saline. The liver, spleen, and kidneys were harvested, weighed, and homogenized. Homogenized samples were plated on Mueller‐Hinton agar (MHA) solid medium for overnight incubation, and bacterial load was quantified the next day. Sections of the liver, spleen, and kidneys were obtained for histological analysis employing H&E staining. Besides, the spleens were specifically selected for immunofluorescence analysis to assess the expression levels of IL‐10, TNF‐α, CD206, and CD86.

Series [6] relates to S. aureus ATCC 29213. Kind of series: Time-kill kinetics. It is filed as cell-based, Staphylococcus aureus. The note with it: PBS pH 7.4, n = 3. Here is the method:
as §2

In series [7] the test system is E. coli ATCC 25922. The series can be described thus: Drug resistance assay, 30 serial passages. It is filed as cell-based, Escherichia coli. The note with it: E. coli ATCC 25922, 30 successive passages at sub-MIC concentrations. How it is done: as §1
A further series can be described thus: ThT fluorescence assay. It is filed as physicochemical. The note with it: 16 × 10^−6 M N4, ThT 40 × 10^−6 M, deionized water, 20 min, 37 °C. How it is done:
The fluorescent dye was used for fluorescence measurements and imaging of N4. ^[ [48] ^] […] An equal volume of ThT solution was added to each well (final concentration: 40 × 10^−6 M), with ThT in deionized water serving as the control. After 20 min incubation at 37 °C, fluorescence intensity was measured using a microplate reader (excitation λ = 450 nm, emission λ = 480 nm). N4 was stained with 40 × 10^−6 M ThT for 30 min and observed by imaging using a fluorescence microscope.

The mark [8] stands for this setting: Day 9, vs infected group, p < 0.05.
The mark [9] stands for this setting: N4 10 mg kg^−1 i.p., vs infected group, p < 0.05.

With `N=C(N)NCCC[C@H](NC(=O)[C@@H](CCCNC(=N)N)NC(=O)[C@H](Cc1cccc2ccccc12)NC(=O)[C@H](Cc1cccc2ccccc12)NC(=O)[C@H](Cc1cccc2ccccc12)NC(=O)[C@@H](N)Cc1cccc2ccccc12)C(=O)N[C@@H](CCCNC(=N)N)C(=O)N1CCC[C@H]1C(=O)O` (stereo in doubt) [Peptide N4], in the series with S. aureus ATCC 29213 [1], the PI-positive proportion is recorded as 36.7%. The “increase in MIC values after serial passage” value with S. aureus ATCC 29213 [2] and in the series with E. coli ATCC 25922 [7] was “remained largely unchanged” each time. Also, the “time to eliminate all E. coli ATCC 25922 cells” value with E. coli ATCC 25922 [3] is on record as at most 1500 s. The “bacterial load in skin tissue, Day 9” value in the series on MRSA (10 µL of N4, twice a day on Day 1 and Day 3, topical, infected group 6.89) is 6.12 log10 CFU g^−1. Also, the “bacterial load in skin tissue, Day 5” value with MRSA (10 µL of N4, twice a day on Day 1 and Day 3, topical, infected group 7.1) was 6.59 log10 CFU g^−1. In the series with MRSA (setting [8]), the “anti-inflammatory cytokine IL-10 in supernatant of skin tissues” value was “significant increase”. Further, the “pro-inflammatory cytokines (IL-1β, IL-6, TNF-α) in supernatant of skin tissues” value in the series with MRSA (setting [8]) was “significant decrease”. Moreover, the “red (PI)/green (SYTO 9) fluorescence overlap rate” value in the series on S. aureus ATCC 29213 [4] (16 × 10^−6 M N4, S. aureus ATCC 29213, ImageJ) was determined as 90.74%; in the series with S. aureus ATCC 29213 [4] (256 × 10^−6 M N4, S. aureus ATCC 29213, ImageJ), 98.65%. The “critical aggregation concentration (CAC)” value in series [5] amounted to 5.78 µM. In addition, the “bacterial load, kidney” value in the series on E. coli (E. coli peritonitis-sepsis, N4 10 mg kg^−1 i.p. 1 h after infection, infected group 6.62) was 5.96 log10 CFU g^−1. In the series with E. coli (E. coli peritonitis-sepsis, N4 10 mg kg^−1 i.p. 1 h after infection, infected group 6.87), the “bacterial load, liver” value came to 6.07 log10 CFU g^−1. In the series with E. coli (E. coli peritonitis-sepsis, N4 10 mg kg^−1 i.p. 1 h after infection, infected group 6.97), the “bacterial load, spleen” value worked out at 6.28 log10 CFU g^−1. The “bacterial load, peritoneum” value in the series on E. coli (E. coli peritonitis-sepsis, N4 10 mg kg^−1 i.p. 1 h after infection, infected group 7.48) was 6.37 log10 CFU. Also, the “serum levels of anti-inflammatory cytokine IL-10” value in the series with E. coli (setting [9]) is given as “increased”. In the series on E. coli (setting [9]), the “serum levels of pro-inflammatory cytokines (IL-1β, IL-6, TNF-α)” value is “significant decreased”. Besides, the figures for the “time to eliminate all S. aureus ATCC 29213 cells” value with S. aureus ATCC 29213 [6] (1 × MIC) and with S. aureus ATCC 29213 [6] (4 × MIC) were at most 3000 s and at most 1200 s, respectively. The ThT fluorescence intensity entry in the series “ThT fluorescence assay” is “significant increase”.
